In ChEMBL document CHEMBL3885861, “Open TG-GATES”:

Species: Rattus norvegicus
Experiment: Open TG-GATES - Regimen: Daily Repeat
Format: toxicity, organism-based, Sprague-Dawley
Set-up: regimen Daily Repeat, gender Male, age 6 weeks
Details: in vivo, po, 6 mg/kg, route gavage, dose level Middle; for APTT / Bas / Eos / Fbg / Hb / Lym / MCH / MCHC / MCV / Mono / Neu / PT / Plat / RBC / Ret / WBC: tissue Blood; for KIDNEY_L / KIDNEY_R / KIDNEY_TOTAL: tissue Kidney; for LIVER: tissue Liver; for ALP / ALT / AST / BUN / CRE / Ca / Cl / DBIL / GLC / IP / K / LDH / Na / PL / RALB / TBIL / TC / TG / TP / gamma-GTP: tissue Plasma

OCCN1CCN(CCCN2c3ccccc3Sc3ccc(C(F)(F)F)cc32)CC1 [FLUPHENAZINE]
TERMINAL_BW (72 h, time 3 day): 198.7 g | APTT (72 h, time 3 day): 15.9 s | Bas (72 h, time 3 day): 0% | Eos (72 h, time 3 day): 0.6% | Fbg (72 h, time 3 day): 227.2 mg/dL | Hb (72 h, time 3 day): 15.1 g/dL | Lym (72 h, time 3 day): 88.4% | MCH (72 h, time 3 day): 21.2 pg | MCHC (72 h, time 3 day): 33.3% | MCV (72 h, time 3 day): 63.7 fL | Mono (72 h, time 3 day): 5.8% | Neu (72 h, time 3 day): 5.2% | PT (72 h, time 3 day): 12.2 s | Plat (72 h, time 3 day): 119.2 x10_4/uL | RBC (72 h, time 3 day): 711.6 x10_4/ul | Ret (72 h, time 3 day): 3.4% | WBC (72 h, time 3 day): 119.1 x10_2/uL | KIDNEY_L (72 h, time 3 day): 0.9 g | KIDNEY_R (72 h, time 3 day): 0.9 g | KIDNEY_TOTAL (72 h, time 3 day): 1.8 g | LIVER (72 h, time 3 day): 9.5 g | ALP (72 h, time 3 day): 909.4 IU/L | ALT (72 h, time 3 day): 35 IU/L | AST (72 h, time 3 day): 58.6 IU/L | BUN (72 h, time 3 day): 24.8 mg/dL | CRE (72 h, time 3 day): 0.6 mg/dL | Ca (72 h, time 3 day): 10.8 mg/dL | Cl (72 h, time 3 day): 106.4 meq/L | DBIL (72 h, time 3 day): 0.008 mg/dL | GLC (72 h, time 3 day): 177.4 mg/dL | IP (72 h, time 3 day): 8 mg/dL | K (72 h, time 3 day): 4.6 meq/L | LDH (72 h, time 3 day): 84.6 IU/L | Na (72 h, time 3 day): 138.4 meq/L | PL (72 h, time 3 day): 186.6 mg/dL | RALB (72 h, time 3 day): 4.3 g/dL | TBIL (72 h, time 3 day): 0.2 mg/dL | TC (72 h, time 3 day): 98.4 mg/dL | TG (72 h, time 3 day): 112.6 mg/dL | TP (72 h, time 3 day): 6.1 g/dL | gamma-GTP (72 h, time 3 day): 0.6 IU/L | TERMINAL_BW ([…], time 7 day): 230.3 g | TERMINAL_BW ([…], time 14 day): 284.3 g | TERMINAL_BW ([…], time 28 day): 346.8 g | APTT ([…], time 7 day): 16.8 s | Bas ([…], time 7 day): 0% | Eos ([…], time 7 day): 0.6% | Fbg ([…], time 7 day): 224.2 mg/dL | Hb ([…], time 7 day): 14 g/dL | Lym ([…], time 7 day): 78.6% | MCH ([…], time 7 day): 21 pg | MCHC ([…], time 7 day): 33.3% | MCV ([…], time 7 day): 63.1 fL | Mono ([…], time 7 day): 5.6% | Neu ([…], time 7 day): 15.2% | PT ([…], time 7 day): 12.1 s | Plat ([…], time 7 day): 82.3 x10_4/uL | RBC ([…], time 7 day): 668.6 x10_4/ul | Ret ([…], time 7 day): 3.6% | WBC ([…], time 7 day): 95.8 x10_2/uL | APTT ([…], time 14 day): 15.9 s | Bas ([…], time 14 day): 0% | Eos ([…], time 14 day): 0.8% | Fbg ([…], time 14 day): 217.2 mg/dL | Hb ([…], time 14 day): 14.4 g/dL | Lym ([…], time 14 day): 79.6% | MCH ([…], time 14 day): 20.1 pg | MCHC ([…], time 14 day): 33.3% | MCV ([…], time 14 day): 60.5 fL | Mono ([…], time 14 day): 5.8% | Neu ([…], time 14 day): 14% | PT ([…], time 14 day): 12.1 s | Plat ([…], time 14 day): 97 x10_4/uL | RBC ([…], time 14 day): 716.4 x10_4/ul | Ret ([…], time 14 day): 3.6% | WBC ([…], time 14 day): 128.9 x10_2/uL | APTT ([…], time 28 day): 17.2 s | Bas ([…], time 28 day): 0% | Eos ([…], time 28 day): 1.2% | Fbg ([…], time 28 day): 209.2 mg/dL | Hb ([…], time 28 day): 15.6 g/dL | Lym ([…], time 28 day): 83% | MCH ([…], time 28 day): 19.7 pg | MCHC ([…], time 28 day): 33.4% | MCV ([…], time 28 day): 58.9 fL | Mono ([…], time 28 day): 5% | Neu ([…], time 28 day): 10.6% | PT ([…], time 28 day): 12.3 s | Plat ([…], time 28 day): 89.8 x10_4/uL | RBC ([…], time 28 day): 792.6 x10_4/ul | Ret ([…], time 28 day): 2.2% | WBC ([…], time 28 day): 134.3 x10_2/uL | KIDNEY_L ([…], time 7 day): 1 g | KIDNEY_R ([…], time 7 day): 1 g | KIDNEY_TOTAL ([…], time 7 day): 2 g | KIDNEY_L ([…], time 14 day): 1.1 g | KIDNEY_R ([…], time 14 day): 1.1 g | KIDNEY_TOTAL ([…], time 14 day): 2.3 g | KIDNEY_L ([…], time 28 day): 1.2 g | KIDNEY_R ([…], time 28 day): 1.2 g | KIDNEY_TOTAL ([…], time 28 day): 2.4 g | LIVER ([…], time 7 day): 10.9 g | LIVER ([…], time 14 day): 11.9 g | LIVER ([…], time 28 day): 13.7 g | ALP ([…], time 7 day): 836 IU/L | ALT ([…], time 7 day): 33 IU/L | AST ([…], time 7 day): 62.6 IU/L | BUN ([…], time 7 day): 18 mg/dL | CRE ([…], time 7 day): 0.5 mg/dL | Ca ([…], time 7 day): 10.5 mg/dL | Cl ([…], time 7 day): 105.2 meq/L | DBIL ([…], time 7 day): 0.012 mg/dL | GLC ([…], time 7 day): 170.6 mg/dL | IP ([…], time 7 day): 8.4 mg/dL | K ([…], time 7 day): 4.8 meq/L | LDH ([…], time 7 day): 79.4 IU/L | Na ([…], time 7 day): 137.4 meq/L | PL ([…], time 7 day): 178.8 mg/dL | RALB ([…], time 7 day): 4.1 g/dL | TBIL ([…], time 7 day): 0.3 mg/dL | TC ([…], time 7 day): 96.4 mg/dL | TG ([…], time 7 day): 106 mg/dL | TP ([…], time 7 day): 6 g/dL | gamma-GTP ([…], time 7 day): 1 IU/L | ALP ([…], time 14 day): 859.2 IU/L | ALT ([…], time 14 day): 29.4 IU/L | AST ([…], time 14 day): 63.2 IU/L | BUN ([…], time 14 day): 18 mg/dL | CRE ([…], time 14 day): 0.5 mg/dL | Ca ([…], time 14 day): 10.7 mg/dL | Cl ([…], time 14 day): 103.6 meq/L | DBIL ([…], time 14 day): 0 mg/dL | GLC ([…], time 14 day): 190.8 mg/dL | IP ([…], time 14 day): 7.8 mg/dL | K ([…], time 14 day): 4.6 meq/L | LDH ([…], time 14 day): 99.2 IU/L | Na ([…], time 14 day): 135.2 meq/L | PL ([…], time 14 day): 141 mg/dL | RALB ([…], time 14 day): 4.2 g/dL | TBIL ([…], time 14 day): 0.3 mg/dL | TC ([…], time 14 day): 68 mg/dL | TG ([…], time 14 day): 109.2 mg/dL | TP ([…], time 14 day): 5.9 g/dL | gamma-GTP ([…], time 14 day): 1.6 IU/L | ALP ([…], time 28 day): 483.8 IU/L | ALT ([…], time 28 day): 32.8 IU/L | AST ([…], time 28 day): 58.6 IU/L | BUN ([…], time 28 day): 21.4 mg/dL | CRE ([…], time 28 day): 0.6 mg/dL | Ca ([…], time 28 day): 10.7 mg/dL | Cl ([…], time 28 day): 107.6 meq/L | DBIL ([…], time 28 day): 0.006 mg/dL | GLC ([…], time 28 day): 175.2 mg/dL | IP ([…], time 28 day): 6.3 mg/dL | K ([…], time 28 day): 4.5 meq/L | LDH ([…], time 28 day): 75 IU/L | Na ([…], time 28 day): 140.4 meq/L | PL ([…], time 28 day): 147 mg/dL | RALB ([…], time 28 day): 4.2 g/dL | TBIL ([…], time 28 day): 0.3 mg/dL | TC ([…], time 28 day): 66.4 mg/dL | TG ([…], time 28 day): 138.8 mg/dL | TP ([…], time 28 day): 6.3 g/dL | gamma-GTP ([…], time 28 day): 1.6 IU/L
